In ChEMBL document CHEMBL2390900, “The use of virtual screening and differential scanning fluorimetry for the rapid identification of fragments active against MEK1” (Bioorg Med Chem Lett, 2013) one finds ΔTm, RU and IC50 data, which are given here for two compounds.

Assay [1] concerns the target T1, Dual specificity mitogen-activated protein kinase kinase 1 (Homo sapiens, UniProt Q02750).
Description: Binding affinity to MEK1 (unknown origin) assessed as fluorescence intensity every 0.2 degC at 500 uM at 20 degC to 90 degC by differential screening fluorimetry analysis
Assay [2] has as its target T1, Dual specificity mitogen-activated protein kinase kinase 1. The source holds these as a separate data set.
Assay [3] shares this target. As to the kind of experiment: Inhibition of MEK1 (unknown origin) using ATP and ERK2 K54R as substrate after 60 to 80 mins by HTRF assay. Background: TR-FRET usually uses a lanthanide donor and a delayed reading to cut background.

T1 sequence (Q02750 whole entry): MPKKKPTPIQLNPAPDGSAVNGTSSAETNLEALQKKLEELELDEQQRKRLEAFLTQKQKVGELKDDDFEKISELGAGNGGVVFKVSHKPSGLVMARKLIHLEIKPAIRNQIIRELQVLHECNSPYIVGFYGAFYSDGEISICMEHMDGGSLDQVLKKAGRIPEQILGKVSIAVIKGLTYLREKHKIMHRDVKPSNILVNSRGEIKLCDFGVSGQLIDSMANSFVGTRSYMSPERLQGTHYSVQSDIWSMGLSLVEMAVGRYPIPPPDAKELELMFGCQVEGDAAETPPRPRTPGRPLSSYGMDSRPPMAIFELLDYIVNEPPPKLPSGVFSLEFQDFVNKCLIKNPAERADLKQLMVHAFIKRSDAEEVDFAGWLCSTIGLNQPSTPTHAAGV

Turning to `O=c1[nH]ccc2cc(O[C@@H]3CCCNC3)c(Cl)cc12`, the ΔTm (usually the shift of the melting midpoint relative to a reference) in assay [1] was 0.2 °C. This compound registered an RU in assay [2] of 0.3.

For the compound `CC1(O)CCN2C(=O)CCc3cccc1c32` (centres undefined), in assay [1], the ΔTm was 3.8 °C. The IC50 (as a rule, the point on the concentration scale where inhibition reaches its midpoint) in assay [3] was 18.1 µM.
